Experimental data from PMC8795197, “Safety and activity of WX-0593 (Iruplinalkib) in patients with ALK- or ROS1-rearranged advanced non-small cell lung cancer: a phase 1 dose-escalation and dose-expansion trial” (Signal Transduction and Targeted Therapy, 2022).
“Also recorded” adds a separate entry of the source. Like-named read-outs stand apart in the source and are kept apart here.

Tests used:
Ba/F3 CD74-ROS1-D2033N = experiment: Growth of transfected Ba/F3 cells (CellTiter-Glo, 3 days); assay type: cell-based; settings: Mus musculus, BaF3
Procedure: (§1) Harvest cells during the logarithmic growth period and count cells using blood counting chamber. Adjust cell concentration with culture medium. Add 90µl cell suspensions to two 96-well plates to the final cell density as described before. Incubate the plate overnight in humidified incubator at 37℃ with 5% CO2. Dispense 10µl drug solution (10×) to each well (triplicate for each concentration), and the DMSO final concentration in culture medium is 0.1% [v/v]. Culture the plates for 3 days.On Day 3, Read luminescent using Multi Label Reader. The software of GraphPad Prism was used to calculate IC50. The graphical curves were fitted using a nonlinear regression model with a sigmoidal dose response.

Ba/F3 CD74-ROS1-L1951R = experiment: as above; assay type: cell-based; settings: Mus musculus, BaF3
Procedure: as §1

Ba/F3 CD74-ROS1-S1986F = experiment: as above; assay type: cell-based; settings: Mus musculus, BaF3
Procedure: as §1

Ba/F3 CD74-ROS1-S1986Y = experiment: as above; assay type: cell-based; settings: Mus musculus, BaF3
Procedure: as §1

[1] = tested on: Ba/F3 SLC34A2-ROS1-G2032R; experiment: as above; assay type: cell-based; settings: Mus musculus, BaF3
Procedure: as §1

[2] = tested on: Ba/F3 SLC34A2-ROS1-L2026M; experiment: as above; assay type: cell-based; settings: Mus musculus, BaF3
Procedure: as §1

Ba/F3 SLC34A2-ROS1 = experiment: as above; assay type: cell-based; settings: Mus musculus, BaF3
Procedure: as §1

21 GPCR targets = experiment: GPCR agonist screening assay; assay type: cell-based; settings: all 21 GPCR targets
Source text: In the agonist screening assay, the activity percent at maximum dose of WX-0593 was all less than 50% for the 21 GPCR targets tested.

M1 = M1 (Homo sapiens, UniProt P11229); experiment: GPCR antagonist screening assay; assay type: cell-based
Eta = Eta (Homo sapiens, UniProt P25101); experiment: GPCR antagonist screening assay; assay type: cell-based
LU-01-0319R NSCLC PDX = experiment: PDX model resistant to crizotinib; assay type: in vivo
[3] = tested on: NCI-H3122 (EML4-ALK fusion gene positive) human NSCLC; experiment: CDX model: efficacy and exposure in plasma, tumor, brain, lung; assay type: in vivo
Source text: NCI-H3122 (EML4-ALK fusion gene positive) is an ALK wild type human NSCLC. […] Higher drug concentration in the lungs provides the material basis for the treatment of lung cancer.

CYP3A4 = CYP3A4 (Homo sapiens, UniProt P08684); experiment: Metabolic enzyme phenotyping (chemical inhibitors, recombinant human P450); assay type: in vitro ADME
Source text: Other isoenzymes (CYP1A2, CYP2B6, CYP2C8, CYP2C9, CYP2C19 and CYP2D6) played a secondary or insignificant role in the formation of M1, M2, and M5.

[4] = Excretion and mass balance after [14C]WX-0593, bile-duct cannulation (BDC); assay type: in vivo; settings: 0-72 hours, BDC rats
[5] = General pharmacology: CNS and respiratory system; assay type: in vivo, rats
Procedure: […]. Therefore, WX-0593 has a low risk of cardiotoxicity. There were no effects on the CNS and respiratory system in rats at doses of 3, 10, and 30 mg/kg. However, WX-0593 10 and 30 mg/kg may result in benign respiratory rate and decreases in minute ventilation in female rats. There were no effects on the cardiovascular system, blood pressure, ECG parameters or waveforms in monkeys at doses of 5, 10, and 25 mg/kg; 10 and 25 mg/kg may result in mild decreases in heart rate (within the normal range) and PR prolongation and QTc shortening associated with bradycardia within the normal range (no statistical difference when compared to the control arm). No cardiovascular system adverse reactions related to the test product were found. The human equivalent dose (using 60 kg) is 3636 mg/person in CNS, 3636 mg/person in male respiratory system and 363.6 mg/person in female respiratory system, and 607 mg/person in cardiovascular system.

[6] = Repeated-dose toxicity study, 28 days oral gavage; assay type: in vivo, rats; settings: for AUC(0-t): po, read-out: AUC0-24h (Day 28)
Procedure: The severely toxic dose in 10% of the animals (STD10) in rodents was > 30 mg/kg. At a dose of 10 mg/kg/day, AUC0-24h (Day 28) was 16800 h·ng/mL in males and 17300 h·ng/mL in females, which is 4.5 times and 4.7 times of the exposure at the effective dose in mice (2.5 mg/kg, AUC0-24h: 3700 h·ng/mL). At a dose of 30 mg/kg/day, AUC0-24h (Day 28) was 27100 h·ng/mL in males and 42400 h·ng/mL in females, which is 7.3 times and 11.5 times of the exposure at the effective dose in nude mice (2.5 mg/kg, AUC0-24h: 3700 h·ng/mL).

[7] = cynomolgus monkey, in vivo
[8] = Excretion and mass balance after [14C]WX-0593; settings: 0-168 hours
[9] = Repeated-dose toxicity study, 28 days oral gavage
Procedure: Repeated administration for 28 days was carried out. 3, 10, and 30 mg/kg were administered to rats. 1, 3, and 10 mg/kg were administered to cynomolgus monkeys.

Sequence of CYP3A4 (P08684 whole entry): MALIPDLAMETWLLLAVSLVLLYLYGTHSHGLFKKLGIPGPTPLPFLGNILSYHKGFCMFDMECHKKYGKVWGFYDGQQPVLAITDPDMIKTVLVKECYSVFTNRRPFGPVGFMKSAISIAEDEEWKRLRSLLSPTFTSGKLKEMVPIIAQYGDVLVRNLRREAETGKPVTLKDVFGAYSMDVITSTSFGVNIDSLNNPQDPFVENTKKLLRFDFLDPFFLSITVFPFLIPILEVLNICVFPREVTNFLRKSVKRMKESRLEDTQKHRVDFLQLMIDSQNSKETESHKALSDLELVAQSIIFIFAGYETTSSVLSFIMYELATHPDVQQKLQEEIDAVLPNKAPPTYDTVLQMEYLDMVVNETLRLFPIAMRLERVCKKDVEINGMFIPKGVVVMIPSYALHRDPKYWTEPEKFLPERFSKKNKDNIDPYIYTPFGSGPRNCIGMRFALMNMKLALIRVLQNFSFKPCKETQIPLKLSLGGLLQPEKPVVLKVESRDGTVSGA
Sequence of M1 (P11229 whole entry): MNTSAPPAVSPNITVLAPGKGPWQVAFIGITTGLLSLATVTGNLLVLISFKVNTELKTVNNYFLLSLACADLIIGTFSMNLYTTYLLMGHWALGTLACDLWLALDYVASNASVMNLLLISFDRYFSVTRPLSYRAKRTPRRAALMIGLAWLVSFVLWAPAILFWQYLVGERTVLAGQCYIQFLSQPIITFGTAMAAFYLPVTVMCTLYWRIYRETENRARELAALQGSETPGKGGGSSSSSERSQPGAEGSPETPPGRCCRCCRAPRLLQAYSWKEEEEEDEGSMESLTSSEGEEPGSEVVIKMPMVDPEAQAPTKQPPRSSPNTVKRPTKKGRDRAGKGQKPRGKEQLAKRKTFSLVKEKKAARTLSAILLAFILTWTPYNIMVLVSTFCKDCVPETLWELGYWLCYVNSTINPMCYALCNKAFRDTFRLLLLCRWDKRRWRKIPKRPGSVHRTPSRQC
Sequence of Eta (P25101 21-427): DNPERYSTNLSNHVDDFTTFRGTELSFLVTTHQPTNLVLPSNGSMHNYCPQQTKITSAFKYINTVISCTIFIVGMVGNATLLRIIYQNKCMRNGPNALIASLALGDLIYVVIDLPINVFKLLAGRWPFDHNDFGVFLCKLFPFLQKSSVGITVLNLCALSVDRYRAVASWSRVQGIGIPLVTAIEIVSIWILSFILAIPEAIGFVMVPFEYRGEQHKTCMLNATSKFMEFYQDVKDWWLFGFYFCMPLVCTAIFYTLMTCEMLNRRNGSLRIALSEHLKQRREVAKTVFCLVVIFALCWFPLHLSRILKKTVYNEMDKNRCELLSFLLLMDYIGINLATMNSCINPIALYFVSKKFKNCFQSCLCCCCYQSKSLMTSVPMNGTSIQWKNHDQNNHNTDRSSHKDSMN

COc1cc(N2CCC3(CCN(C)CC3)CC2)ccc1Nc1ncc(Cl)c(Nc2ccccc2P(C)(C)=O)n1 [WX-0593]
IC50 (Ba/F3 CD74-ROS1-D2033N): 33.8 nM
IC50 (Ba/F3 CD74-ROS1-L1951R): 626 nM
IC50 (Ba/F3 CD74-ROS1-S1986F): 22.4 nM
IC50 (Ba/F3 CD74-ROS1-S1986Y): 15.9 nM
IC50 [1]: 584 nM
IC50 [2]: 12 nM
IC50 (Ba/F3 SLC34A2-ROS1): 11 nM
activity percent at maximum dose (agonist) (21 GPCR targets): less than 50%
EC50 (21 GPCR targets; highest dose detected): > 133000 nM
IC50 (M1): > 10000 nM
IC50 (Eta): 500 nM
anti-tumor effect (LU-01-0319R NSCLC PDX; WX-0593 2.5, 5, 10 mg/kg, ceritinib 10/20 mg/kg, brigatinib 10 mg/kg): significant anti-tumor effects
body weight (LU-01-0319R NSCLC PDX; all treatment arms): no significant decrease in weight
drug exposure in tumor tissue relative to brigatinib ([3]; 5 mg/kg each): 2 times
efficacy compared with brigatinib ([3]; 5 mg/kg each): comparable
plasma drug exposure compared with brigatinib ([3]; 5 mg/kg each): comparable
drug exposure in the lungs relative to brigatinib ([3]; 5 mg/kg each, 1 h after dosing): approximately 2 times
drug exposure in the brain relative to brigatinib ([3]; 5 mg/kg each, 8 h after dosing): approximately 2 times
drug exposure in the lungs relative to brigatinib ([3]; 5 mg/kg each, 8 h after dosing): approximately 3 times
treatment efficacy versus dose ([3]; 2.5, 5, 10 mg/kg): increased with dose
rank of drug concentrations in tissues ([3]; 1 h and 8 h after dosing, all dose arms (2.5, 5, 10 mg/kg)): lungs > tumor > brain
major metabolic enzyme (formation of M1, M2, M5) (CYP3A4): primarily metabolized by CYP3A4; also recorded: CYP3A4 is the major metabolic enzyme
dose excreted in bile [4]: 30.56%
dose excreted in feces [4]: 32.04%
dose excreted in urine [4]: 30.73%
dose in cage rinses and washes [4]: 1.43%
mean radioactivity recovery rate [4]: 94.75%
effects on the CNS and respiratory system ([5]; 3, 10 and 30 mg/kg): no effects
human equivalent dose, CNS ([5]; using 60 kg): 3636 mg/person
human equivalent dose, female respiratory system ([5]; using 60 kg): 363.6 mg/person
human equivalent dose, male respiratory system ([5]; using 60 kg): 3636 mg/person
exposure as multiple of that at the effective dose in mice ([6]; 10 mg/kg/day, females): 4.7 times
exposure as multiple of that at the effective dose in mice ([6]; 10 mg/kg/day, males): 4.5 times
exposure as multiple of that at the effective dose in nude mice ([6]; 30 mg/kg/day, females): 11.5 times
exposure as multiple of that at the effective dose in nude mice ([6]; 30 mg/kg/day, males): 7.3 times
human equivalent dose ([6]; 1/10 of rat STD10, 60 kg/person): 29 mg/person
severely toxic dose in 10% of the animals (STD10) ([6]; 28 days oral gavage): > 30 mg/kg
AUC(0-t) ([6]; female, rat, in vivo, 10 mg/kg/day, females): 17300 ng·h/mL
AUC(0-t) ([6]; female, rat, in vivo, 30 mg/kg/day, females): 42400 ng·h/mL
AUC(0-t) ([6]; male, rat, in vivo, 10 mg/kg/day, males): 16800 ng·h/mL
AUC(0-t) ([6]; male, rat, in vivo, 30 mg/kg/day, males): 27100 ng·h/mL
NOAEL at 28 days ([6]; rat, in vivo, 28 days oral gavage): 10 mg/kg/day
mutagenic activity (Mutagenicity study): no mutagenic activity
MTD as multiple of the effective dose in nude mice [7]: 20 times
dose excreted in feces [8]: 85.84%
dose excreted in urine [8]: 9.36%
dose in cage rinses and washes [8]: 1.51%
mean radioactivity recovery rate ([8]; single oral [14C]WX-0593 8 mg/kg): 96.71%
human equivalent dose (HED) ([9]; 1/5 of NOAEL, 60 kg/person): 12 mg/person
human equivalent dose ([9]; 1/6 of HNSTD, 60 kg/person): 32 mg/person
highest non-severely toxic dose (HNSTD) ([9]; 28 days oral gavage): greater than 10 mg/kg/day
HNSTD as multiple of the effective dose in nude mice ([9]; cynomolgus monkey, in vivo): 16 times
NOAEL as multiple of the effective dose in nude mice ([9]; cynomolgus monkey, in vivo): 4.8 times
